Test results as given in patent EP2712863B1, “Novel inhibitors of bacterial biofilms and related methods” (Sequoia Sciences, Inc., priority 2012, dated 2014).
In brackets after ≈: the same amount, converted by molar mass. Where two headings read alike, the source gives them in different places.

Key:
P. aeruginosa = test: Biofilm growth assay (spreading biofilm on semi-solid agar); type: cell-based; settings: Pseudomonas aeruginosa, concentration that reduces the area of the spreading biofilm by >= 85%, read-out: P. aeruginosa
E. coli = test: as above; type: cell-based; settings: Escherichia coli, concentration that reduces the area of the spreading biofilm by >= 85%, read-out: E. coli
Outline: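 Spreading (swarming) biofilm on semi-solid agar: E. coli on LB with 0.6% agar and 0.5% glucose; P. aeruginosa on M8 agar with 0.2% glucose, 100 µM CaCl2, 1 mM MgSO4, 0.5% Casamino acids. Compound in medium; 5 µL overnight culture spotted centrally, 37°C overnight. Value: concentration (µg/ml) giving ≥85% reduction in spread area versus negative control.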

SMILES	IC85 (P. aeruginosa; Table 3) [µg/mL]	IC85 (E. coli; Table 3) [µg/mL]	also measured
CC1(C)CC[C@]2(C(=O)O)CC[C@]3(C)C(=C(c4ccoc4CN4CCOCC4)CC4[C@@]5(C)Cc6c(n[nH]c6N)C(C)(C)[C@@H]5CC[C@]43C)[C@@H]2C1 (stereo partly drawn) [Compound 32, (4aS,6aS,6bR,8aR,13aR,15bS)-12-Amino-2,2,6a,6b,9,9,13a-heptamethyl-15-(2-(morpholinomethyl)furan-3-yl)-2,3,4,4a,5,6,6a,6b,7,8,8a,9,11,13,13a,13b,14,15b-octadecahydro-1H-chryseno[1,2-f]indazole-4a-carboxylic acid]	0.5 (≈ 0.759 µM)	1 (≈ 1.52 µM)	
CC1(C)CC[C@]2(C(=O)O)CC[C@]3(C)C(=C(c4c[nH]c(CN5CCOCC5)c4)CC4[C@@]5(C)Cc6c(n[nH]c6N)C(C)(C)[C@@H]5CC[C@]43C)[C@@H]2C1 (stereo partly drawn) [Compound 9, (4aS,6aS,6bR,8aR,13aR,15bS)-12-Amino-2,2,6a,6b,9,9,13a-heptamethyl-15-(5-(morpholinomethyl)-1H-pyrrol-3-yl)-2,3,4,4a,5,6,6a,6b,7,8,8a,9,11,13,13a,13b,14,15b-octadecahydro-1H-chryseno[1,2-f]indazole-4a-carboxylic acid]			IC85 (P. aeruginosa; Table 2): 0.5 µg/mL (≈ 0.76 µM); IC85 (E. coli; Table 2): 1 µg/mL (≈ 1.52 µM)
CC1(C)CC[C@]2(C(=O)Nc3cc(O)[nH]n3)CC[C@]3(C)C(=CCC4[C@@]5(C)Cc6c(n[nH]c6N)C(C)(C)C5CC[C@]43C)C2C1 (stereo partly drawn) [Compound 66, (4aS,6aS,6bR,13aR)-12-Amino-N-(5-hydroxy-1H-pyrazol-3-yl)-2,2,6a,6b,9,9,13a-heptamethyl-2,3,4,4a,5,6,6a,6b,7,8,8a,9,11,13,13a,13b, 14,15b-octadecahydro-1H-chryseno[1,2-f]indazole-4a-carboxamide]			IC85 (P. aeruginosa; Table 4): 0.25 µg/mL (≈ 0.435 µM); IC85 (E. coli; Table 4): 1 µg/mL (≈ 1.74 µM)
CC1(C)CC[C@]2(C(=O)O)CC[C@]3(C)C(=C(c4cccc(N)c4)CC4[C@@]5(C)Cc6c(n[nH]c6N)C(C)(C)[C@@H]5CC[C@]43C)[C@@H]2C1 (stereo partly drawn) [Compound 15, (4aS,6aS,6bR,8aR,13aR,15bS)-12-Amino-15-(3-aminophenyl)-2,2,6a,6b,9,9,13a-heptamethyl-2,3,4,4a,5,6,6a,6b,7,8,8a,9,11,13,13a,13b,14,15b-octadecahydro-1H-chryseno[1,2-f]indazole-4a-carboxylic acid]	0.25 (≈ 0.427 µM)	1 (≈ 1.71 µM)	
COc1ccc(C2=C3[C@@H]4CC(C)(C)CC[C@]4(C(=O)O)CC[C@@]3(C)[C@]3(C)CC[C@H]4C(C)(C)c5n[nH]c(N)c5C[C@]4(C)C3C2)cn1 (stereo partly drawn) [Compound 42, (4aS,6aS,6bR,8aR,13aR,15bS)-12-Amino-15-(6-methoxypyridin-3-yl)-2,2,6a,6b,9,9,13a-heptamethyl-2,3,4,4a,5,6,6a,6b,7,8,8a,9,11,13,13a,13b,14,15b-octadecahydro-1H-chryseno[1,2-f]indazole-4a-carboxylic acid]	0.25 (≈ 0.416 µM)	1 (≈ 1.66 µM)	
